# Values quoted from earlier work in US5356784A, “Determination of concentration by affinity titration” (Terrapin Technologies, Inc., priority 1993, dated 1994).
# Tested on: Concanavalin A (ConA)
# Settings: ConA with bacterial dextran from strain B-1355-5; materials described by Scott et al. PNAS 1992
row,Molecule,inhibition of precipitation of ConA-dextran
1,VGRAFS: peptide identified by screening a phage epitope display library; inhibits Con A-dextran precipitation,inhibit
2,MYWYPY: peptide identified by screening a phage epitope display library; inhibits Con A-dextran precipitation,inhibit
3,"CO[C@H]1O[C@H](CO)[C@@H](O)[C@H](O)[C@@H]1O [MeMan, methyl-alpha-Man]",inhibited in a dosedependent manner
